From EP2970215B1, “PYRROLIDINE DERIVATIVES, PHARMACEUTICAL COMPOSITIONS CONTAINING THEM, AND THEIR USE IN THERAPY” (AbbVie Deutschland GmbH & Co. KG, priority 2013, dated 2014)
pKi: −log10 of the molar value.

target: T1, human GlyT1c transporter (Homo sapiens, UniProt P48067); experiment: Radioligand binding assay using recombinant CHO cell membranes expressing human GlyT1; details: radioligand binding to human GlyT1c transporter-expressing membranes
T1 construct: expressed in transfected cells; host or cells: CHO cells (recombinant; line hGlyT1c_5_CHO is named for the uptake assay)
T1 sequence (P48067 1-706): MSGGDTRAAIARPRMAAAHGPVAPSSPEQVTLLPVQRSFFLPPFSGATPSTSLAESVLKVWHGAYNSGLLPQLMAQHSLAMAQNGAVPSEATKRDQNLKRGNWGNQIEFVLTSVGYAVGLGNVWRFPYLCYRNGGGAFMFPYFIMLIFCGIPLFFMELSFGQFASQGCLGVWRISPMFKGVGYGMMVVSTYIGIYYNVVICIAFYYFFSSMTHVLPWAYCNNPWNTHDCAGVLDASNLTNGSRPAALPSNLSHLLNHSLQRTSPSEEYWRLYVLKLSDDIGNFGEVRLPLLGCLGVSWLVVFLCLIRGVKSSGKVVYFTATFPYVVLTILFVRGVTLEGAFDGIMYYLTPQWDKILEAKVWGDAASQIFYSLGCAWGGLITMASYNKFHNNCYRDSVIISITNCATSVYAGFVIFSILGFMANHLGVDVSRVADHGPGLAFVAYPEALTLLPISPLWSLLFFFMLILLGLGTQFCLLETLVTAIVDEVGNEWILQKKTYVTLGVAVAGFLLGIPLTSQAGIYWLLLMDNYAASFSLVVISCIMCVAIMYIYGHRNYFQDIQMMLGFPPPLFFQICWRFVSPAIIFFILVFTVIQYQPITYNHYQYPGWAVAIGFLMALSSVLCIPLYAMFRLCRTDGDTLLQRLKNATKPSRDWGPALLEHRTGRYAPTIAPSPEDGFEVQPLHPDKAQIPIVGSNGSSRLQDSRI
Text: 2. Radioligand binding assays using recombinant CHO cell membranes expressing human GlyT1: […]

Row | Structure (SMILES) | pKi
1 | Cn1cnc(S(=O)(=O)N2CC(Cc3cccc(Cl)c3)C(c3ccc(F)cc3)C2)c1 (stereo not drawn) [Example 182, 4-{[3-(3-chlorobenzyl)-4-(4-fluorophenyl)pyrrolidin-1-yl]sulfonyl}-1-methyl-1H-imidazole] | ≥ 7.00
2 | Cn1cnc(S(=O)(=O)N2CC(Cc3ccccc3Br)C(c3ccccc3Br)C2)c1 (stereo not drawn) [Example 205, 4-{[3-(2-bromobenzyl)-4-(2-bromophenyl)pyrrolidin-1-yl]sulfonyl}-1-methyl-1H-imidazole] | ≥ 6.00
3 | Cn1cnc(S(=O)(=O)N2CC(Oc3ccccc3)C(c3ccccc3)C2)c1 (stereo not drawn) [Example 277, 1-methyl-4-[(3-phenoxy-4-phenylpyrrolidin-1-yl)sulfonyl]-1H-imidazole] | ≥ 5.00
4 | Cn1cnc(S(=O)(=O)N2CC(Cc3cccc(Cl)c3)C(C3CC3)C2)c1 (stereo not drawn) [Example 309, 4-{[3-(3-chlorobenzyl)-4-cyclopropylpyrrolidin-1-yl]sulfonyl}-1-methyl-1H-imidazole] | ≥ 6.00
5 | Cn1cnc(S(=O)(=O)N2CC(Nc3ccc(F)c(C(F)F)c3)C(c3ccc(F)cc3)C2)c1 (stereo not drawn) [Example 310, N-[3-(difluoromethyl)-4-fluorophenyl]-4-(4-fluorophenyl)-1-[(1-methyl-1H-imidazol-4-yl)sulfonyl]pyrrolidin-3-amine] | ≥ 7.00
6 | Cn1cnc(S(=O)(=O)N2C[C@@H](NCc3ccc(C(F)(F)F)cc3Cl)[C@H](c3ccc(F)cc3)C2)c1 [Example 321, (3S,4R)-N-[2-chloro-4-(trifluoromethyl)benzyl]-4-(4-fluorophenyl)-1-[(1-methyl-1H-imidazol-4-yl)sulfonyl]pyrrolidin-3-amine] | ≥ 6.00
7 | Cn1cnc(S(=O)(=O)N2C[C@H](NCc3ccc(C(F)(F)F)cc3Cl)[C@@H](c3ccc(F)cc3)C2)c1 [Example 322, (3R,4S)-N-[2-chloro-4-(trifluoromethyl)benzyl]-4-(4-fluorophenyl)-1-[(1-methyl-1H-imidazol-4-yl)sulfonyl]pyrrolidin-3-amine] | ≥ 8.00
8 | Cn1cnc(S(=O)(=O)N2C[C@@H](Nc3ccc(F)cc3)[C@H](c3ccc(F)cc3)C2)c1 [Example 324, (3S,4R)-N,4-bis(4-fluorophenyl)-1-[(1-methyl-1H-imidazol-4-yl)sulfonyl]pyrrolidin-3-amine] | ≥ 5.00
9 | Cn1cnc(S(=O)(=O)N2C[C@@H](Nc3cccc(Cl)c3)[C@H](c3ccc(F)cc3)C2)c1 [Example 325, (3S,4R)-N-(3-chlorophenyl)-4-(4-fluorophenyl)-1-[(1-methyl-1H-imidazol-4-yl)sulfonyl]pyrrolidin-3-amine] | ≥ 6.00
10 | Cn1cnc(S(=O)(=O)N2C[C@H](Nc3cccc(Cl)c3)[C@@H](c3ccc(F)cc3)C2)c1 [Example 328, (3R,4S)-N-(3-chlorophenyl)-4-(4-fluorophenyl)-1-[(1-methyl-1H-imidazol-4-yl)sulfonyl]pyrrolidin-3-amine] | ≥ 7.00
11 | Cn1cnc(S(=O)(=O)N2C[C@H](Nc3ccc(F)cc3)[C@@H](c3ccc(F)cc3)C2)c1 [Example 330, (3R,4S)-N,4-bis(4-fluorophenyl)-1-[(1-methyl-1H-imidazol-4-yl)sulfonyl]pyrrolidin-3-amine] | ≥ 7.00
12 | Cn1cnc(S(=O)(=O)N2CC(c3ccccc3)C(Cc3cccc(Cl)c3)C2=O)c1 (stereo not drawn) [Example 331, 3-(3-chlorobenzyl)-1-[(1-methyl-1H-imidazol-4-yl)sulfonyl]-4-phenylpyrrolidin-2-one] | ≥ 6.00
13 | Cn1cnc(S(=O)(=O)N2CC(c3ccc(F)cc3)C(c3ccccc3Cl)C2)c1 (stereo not drawn) [Example 339, 4-{[3-(2-chlorophenyl)-4-(4-fluorophenyl)pyrrolidin-1-yl]sulfonyl}-1-methyl-1H-imidazole] | ≥ 5.00
14 | Cn1cnc(S(=O)(=O)N2CC(c3ccc(F)cc3)C(c3ccc(Cl)cc3)C2)c1 (stereo not drawn) [Example 340, 4-{[3-(4-chlorophenyl)-4-(4-fluorophenyl)pyrrolidin-1-yl]sulfonyl}-1-methyl-1H-imidazole] | ≥ 6.00
15 | CC(C)Oc1cccc(NC2CN(S(=O)(=O)c3cn(C)cn3)CC2c2ccc(F)cc2)c1 (stereo not drawn) [Example 349, 4-(4-fluorophenyl)-1-[(1-methyl-1H-imidazol-4-yl)sulfonyl]-N-[3-(propan-2-yloxy)phenyl]pyrrolidin-3-amine] | ≥ 7.00
16 | Cn1cnc(S(=O)(=O)N2C[C@H](Nc3cccc(C(F)(F)F)n3)[C@@H](c3ccc(F)cc3)C2)c1 [Example 351, N-{(3R,4S)-4-(4-fluorophenyl)-1-[(1-methyl-1H-imidazol-4-yl)sulfonyl]pyrrolidin-3-yl}-6-(trifluoromethyl)pyridin-2-amine] | ≥ 6.00
17 | Cn1cnc(S(=O)(=O)N2C[C@@H](Nc3ccc(F)c(Cl)c3)[C@H](c3ccc(F)cc3)C2)c1 [Example 387, (3S,4R)-N-(3-chloro-4-fluorophenyl)-4-(4-fluorophenyl)-1-[(1-methyl-1H-imidazol-4-yl)sulfonyl]pyrrolidin-3-amine] | ≥ 5.00
18 | Cn1cnc(S(=O)(=O)N2C[C@H](NCc3ccc(C(F)(F)F)cc3Cl)[C@@H](c3ccccc3)C2)c1 [Example 394, (3R,4S)-N-[2-chloro-4-(trifluoromethyl)benzyl]-1-[(1-methyl-1H-imidazol-4-yl)sulfonyl]-4-phenylpyrrolidin-3-amine] | ≥ 8.00
19 | Cn1cnc(S(=O)(=O)N2C[C@@H](NCc3ccc(C(F)(F)F)cc3Cl)[C@H](c3ccccc3)C2)c1 [Example 395, (3S,4R)-N-[2-chloro-4-(trifluoromethyl)benzyl]-1-[(1-methyl-1H-imidazol-4-yl)sulfonyl]-4-phenylpyrrolidin-3-amine] | ≥ 6.00

The remaining lines, values ahead:

Row | pKi | Structure (SMILES)
20 | < 5.00 | Cn1cnc(S(=O)(=O)N2CC(Nc3cccnn3)C(c3ccc(F)cc3)C2)c1 (stereo not drawn) [Example 350, N-{4-(4-fluorophenyl)-1-[(1-methyl-1H-imidazol-4-yl)sulfonyl]pyrrolidin-3-yl}pyridazin-3-amine]
21 | ≥ 7.00 | Cn1cnc(S(=O)(=O)N2C[C@H](Nc3cccc(F)c3)[C@@H](c3ccc(F)cc3)C2)c1 [Example 353, (3R,4S)-N-(3-fluorophenyl)-4-(4-fluorophenyl)-1-[(1-methyl-1H-imidazol-4-yl)sulfonyl]pyrrolidin-3-amine]
22 | ≤ 5.00 | Cn1cnc(S(=O)(=O)N2C[C@H](NC(=O)C3(C(F)(F)F)CC3)[C@@H](c3ccc(F)cc3)C2)c1 [Example 375, N-{(3R,4S)-4-(4-fluorophenyl)-1-[(1-methyl-1H-imidazol-4-yl)sulfonyl]pyrrolidin-3-yl}-1-(trifluoromethyl)cyclopropanecarboxamide]
23 | ≥ 6.00 | Cn1cnc(S(=O)(=O)N2C[C@H](NCC3(C(F)(F)F)CC3)[C@@H](c3ccc(F)cc3)C2)c1 [Example 386, (3R,4S)-4-(4-fluorophenyl)-1-[(1-methyl-1H-imidazol-4-yl)sulfonyl]-N-{[-(trifluoromethyl)cyclopropyl]methyl}pyrrolidin-3-amine]
24 | ≥ 7.00 | Cn1cnc(S(=O)(=O)N2C[C@H](NCc3ccc(C(F)(F)F)o3)[C@@H](c3ccc(F)cc3)C2)c1 [Example 391, (3R,4S)-4-(4-fluorophenyl)-1-[(1-methyl-1H-imidazol-4-yl)sulfonyl]-N-{[5-(trifluoromethyl)furan-2-yl]methyl}pyrrolidin-3-amine]
25 | ≥ 7.00 | Cn1cnc(S(=O)(=O)N2C[C@H](Nc3cccc(C(C)(O)C(F)(F)F)c3)[C@@H](c3ccc(F)cc3)C2)c1 (stereo partly drawn) [Example 392, 1,1,1-trifluoro-2-[3-({(3R,4S)-4-(4-fluorophenyl)-1-[(1-methyl-1H-imidazol-4-yl)sulfonyl]pyrrolidin-3-yl}amino)phenyl]propan-2-ol]
26 | ≥ 8.00 | Cn1cnc(S(=O)(=O)N2C[C@H](NCc3ccc(Cl)s3)[C@@H](c3ccc(F)cc3)C2)c1 [Example 393, (3R,4S)-N-[(5-chlorothiophen-2-yl)methyl]-4-(4-fluorophenyl)-1-[(1-methyl-1H-imidazol-4-yl)sulfonyl]pyrrolidin-3-amine]
27 | ≥ 8.00 | Cn1cnc(S(=O)(=O)N2C[C@H](Nc3cc(C(F)(F)F)ccn3)[C@@H](c3ccccc3)C2)c1 [Example 396, N-{(3R,4S)-1-[(1-methyl-1H-imidazol-4-yl)sulfonyl]-4-phenylpyrrolidin-3-yl}-4-(trifluoromethyl)pyridin-2-amine]
28 | ≥ 8.00 | Cn1cnc(S(=O)(=O)N2C[C@H](Nc3cccc(C(F)(F)F)c3)[C@@H](c3ccccc3)C2)c1 [Example 397, (3R,4S)-1-[(1-methyl-1H-imidazol-4-yl)sulfonyl]-4-phenyl-N-[3-(trifluoromethyl)phenyl]pyrrolidin-3-amine]

same assay, conditions: radioligand binding, recombinant CHO cell membranes expressing human GlyT1c

Row | pKi | Structure (SMILES)
29 | ≥ 5.00 | Cc1cc(N[C@@H]2CN(S(=O)(=O)c3cn(C)cn3)C[C@H]2C2CCCO2)ncc1F (relative stereo) [Example 851, 5-Fluoro-4-methyl-N-[trans-1-[(1-methyl-1H-imidazol-4-yl)sulfonyl]-4-(tetrahydrofuran-2-yl)pyrrolidin-3-yl]pyridin-2-amine]
30 | ≥ 6.00 | Cc1cc(N[C@@H]2CN(S(=O)(=O)c3cn(C)cn3)C[C@H]2C2CCCCO2)ncc1F (relative stereo) [Example 852, 5-Fluoro-4-methyl-N-[trans-1-[(1-methyl-1H-imidazol-4-yl)sulfonyl]-4-(tetrahydro-2H-pyran-2-yl)pyrrolidin-3-yl]pyridin-2-amine]
